Reference: US20250144067A1, “PERSONALIZED STARVATION THERAPY FOR CANCER” (Faeth Therapeutics, Inc., priority 2021, published 2025)
Counter-ions that a name gives are not always drawn.

Experiments:
[1] = system: NCI-H292 lung cancer cells; test: FDA drug screening, complete media vs cholesterol-free media without statin (TABLE 1); assay type: cell-based, human
[2] = system: NCI-H292 lung cancer cells; test: FDA drug screening, complete media vs cholesterol-free media with simvastatin (TABLE 2); assay type: cell-based, human; details: for Cholesterol-free media + simvastatin (0.04 μM) / Complete Media: NCI-H292 cells
[3] = NCI-H292 cells, cholesterol-free media without statin, FDA drug library screen
[4] = NCI-H292 cells, complete media, FDA drug library screen
[5] = complete vs cholesterol-free media, >0 enhanced anti-cancer activity, about 0 neutral, <0 antagonist
[6] = FDA library drug in cholesterol-free media with simvastatin 0.04 μM
[7] = FDA library drug in complete media
[8] = complete media vs cholesterol-free media + simvastatin (0.04 μM), >0 enhanced anti-cancer activity, about 0 neutral, <0 antagonist
[9] = NCI-H292 cells, cholesterol-free media without statin
[10] = complete vs cholesterol-free media, greater than 0 enhanced anti-cancer activity, about 0 neutral, below 0 antagonists
[11] = drug in cholesterol-free media with simvastatin 0.04 μM
[12] = Complete minus Cholesterol-free, >0 enhanced anti-cancer activity, about 0 neutral, <0 antagonist
[13] = cholesterol-free media with simvastatin 0.04 μM, cell growth value in FDA drug screen
[14] = complete media, cell growth value in FDA drug screen
[15] = complete media minus cholesterol-free media + simvastatin, >0 enhanced anti-cancer activity, about 0 neutral, <0 antagonist
[16] = Complete minus Cholesterol-free, greater than 0 enhanced anti-cancer activity, about 0 neutral, below 0 antagonists
[17] = NCI-H292 cells in cholesterol-free media without statin
[18] = NCI-H292 cells in complete media
[19] = FDA drug library screen, cholesterol-free media with simvastatin 0.04 μM
[20] = Complete minus Cholesterol-free, greater than 0 enhanced anti-cancer activity, about 0 neutral, below 0 antagonist
[21] = NCI-H292 cells, FDA drug library screen, cholesterol-free media without statin
[22] = NCI-H292 cells, FDA drug library screen, complete media
[23] = FDA drug library screen, complete media
[24] = Complete minus Cholesterol-free, […]
[25] = cholesterol-free media with simvastatin 0.04 μM, FDA drug library screen (TABLE 2)
[26] = complete media, FDA drug library screen (TABLE 2)
[27] = complete media minus cholesterol-free media + simvastatin (0.04 μM), […]

CC[C@@H](CO)NCCN[C@@H](CC)CO [Ethambutol (dihydrochloride)]
Cholesterol-free [1, 3]: 0.4829 | Complete [1, 4]: 1.206 | Difference [1, 5]: 0.72 | Cholesterol-free media + simvastatin (0.04 μM) [2, 6]: 1.428 | Complete Media [2, 7]: 1.016 | Difference [2, 8]: −0.41

Nc1ncnc2c1ncn2[C@@H]1O[C@H](CO)[C@@H](O)[C@@H]1O [Vidarabine]
Cholesterol-free [1, 9]: 1.542 | Complete ([1]; NCI-H292 cells, complete media): 1.194 | Difference [1, 10]: −0.35 | Cholesterol-free media + simvastatin (0.04 μM) [2, 11]: 0.9857 | Complete Media ([2]; drug in complete media): 0.8059 | Difference [2, 8]: −0.18

CO/N=C(\C(=O)N[C@@H]1C(=O)N2C(C(=O)OCOC(=O)C(C)(C)C)=C(/C=C\c3scnc3C)CS[C@H]12)c1csc(N)n1 [Cefditoren (Pivoxil)]
Difference [1, 12]: −0.05 | Cholesterol-free [1, 3]: 1.012 | Complete [1, 4]: 0.9665 | Cholesterol-free media + simvastatin (0.04 μM) [2, 13]: 0.7736 | Complete Media [2, 14]: 0.8262 | Difference [2, 15]: 0.05

O=C(O)Cc1cc(I)c(Oc2ccc(O)c(I)c2)c(I)c1 [Tiratricol]
Difference [1, 16]: −0.55 | Cholesterol-free [1, 17]: 1.869 | Complete [1, 18]: 1.318 | Cholesterol-free media + simvastatin (0.04 μM) [2, 19]: 0.7173 | Difference [2, 15]: 0.43

CC(=O)OCC(=O)[C@@]12OC3(CCCC3)O[C@@H]1C[C@H]1[C@@H]3CCC4=CC(=O)C=C[C@]4(C)[C@@]3(F)[C@@H](O)C[C@@]12C [Amcinonide]
Difference [1, 20]: −0.16 | Cholesterol-free [1, 21]: 1.081 | Complete [1, 22]: 0.9188 | Cholesterol-free media + simvastatin (0.04 μM) [2, 19]: 0.5029 | Complete Media [2, 23]: 0.766 | Difference [2, 15]: 0.26

CC(C)(C(=O)c1cccnc1)c1cccnc1 [Metyrapone]
Cholesterol-free [1, 9]: 1.096 | Complete ([1]; NCI-H292 cells, complete media): 0.7386 | Difference [1, 10]: −0.36 | Cholesterol-free media + simvastatin (0.04 μM) [2, 13]: 0.9563 | Complete Media [2, 14]: 1.066 | Difference [2, 15]: 0.11

CCCCC[C@H](O)CC[C@@H]1[C@H]2Cc3cccc(OCC(=O)O)c3C[C@H]2C[C@H]1O [Treprostinil]
Difference [1, 16]: −0.50 | Cholesterol-free [1, 17]: 1.45 | Complete [1, 18]: 0.9512 | Cholesterol-free media + simvastatin (0.04 μM) [2, 6]: 1.177 | Complete Media [2, 7]: 0.8507 | Difference [2, 8]: −0.33

CC(=O)O[C@H]1C[C@H](O[C@H]2[C@@H](O)C[C@H](O[C@H]3[C@@H](O)C[C@H](O[C@H]4CC[C@@]5(C)[C@H](CC[C@@H]6[C@@H]5C[C@@H](O)[C@]5(C)[C@@H](C7=CC(=O)OC7)CC[C@]65O)C4)O[C@@H]3C)O[C@@H]2C)O[C@H](C)[C@H]1O[C@@H]1O[C@H](CO)[C@@H](O)[C@H](O)[C@H]1O [Lanatoside C]
Difference [1, 24]: −0.02 | Cholesterol-free [1, 3]: 7.102E−18 | Complete [1, 4]: −0.02112 | Cholesterol-free media + simvastatin (0.04 μM) [2, 25]: −0.002744 | Complete Media [2, 26]: −0.008403 | Difference [2, 27]: −0.01

Metoprolol (Succinate)
Difference [1, 12]: 0.02 | Cholesterol-free [1, 3]: 0.9592 | Complete [1, 4]: 0.9837 | Cholesterol-free media + simvastatin (0.04 μM) [2, 11]: 1.072 | Complete Media ([2]; drug in complete media): 0.8786 | Difference [2, 8]: −0.19

COc1cc(NCc2ccc3nc(N)nc(N)c3c2C)cc(OC)c1OC [Trimetrexate]
Difference [1, 12]: −0.04 | Cholesterol-free [1, 3]: 0.1317 | Complete [1, 4]: 0.09583 | Cholesterol-free media + simvastatin (0.04 μM) [2, 19]: 0.2201 | Complete Media [2, 23]: 0.1203 | Difference [2, 8]: −0.10

CN1[C@H]2C[C@H](OC(=O)[C@H](CO)c3ccccc3)C[C@@H]1[C@@H](O)C2 (racemic) [Racanisodamine]
Difference [1, 24]: −0.15 | Cholesterol-free [1, 21]: 1.184 | Complete [1, 22]: 1.034 | Cholesterol-free media + simvastatin (0.04 μM) [2, 25]: 0.9483 | Complete Media [2, 26]: 0.9207 | Difference [2, 27]: −0.03

Hydrocortisone hemisuccinate
Difference [1, 16]: −0.57 | Complete [1, 18]: 0.5102 | Cholesterol-free media + simvastatin (0.04 μM) [2, 13]: 0.9423 | Complete Media [2, 14]: 1.019 | Difference [2, 15]: 0.08

COc1c(OCCCN2CCOCC2)ccc2c1N=C(NC(=O)c1cnc(N)nc1)N1CCN=C21 [Copanlisib (dihydrochloride)]
Difference [1, 12]: 0.02 | Cholesterol-free [1, 3]: 0.07316 | Complete [1, 4]: 0.09563 | Cholesterol-free media + simvastatin (0.04 μM) [2, 13]: 0.2902 | Complete Media [2, 14]: 0.3694 | Difference [2, 15]: 0.08

CCCCc1nc(Cl)c(CO)n1Cc1ccc(-c2ccccc2-c2nn[nH]n2)cc1 [Losartan (potassium)]
Difference [1, 12]: −0.24 | Cholesterol-free [1, 9]: 1.05 | Complete ([1]; NCI-H292 cells, complete media): 0.8102 | Cholesterol-free media + simvastatin (0.04 μM) [2, 11]: 1.17 | Complete Media ([2]; drug in complete media): 0.9634 | Difference [2, 8]: −0.21

C/C(=C\C(=O)OCCCCCCCCC(=O)O)C[C@@H]1OC[C@H](C[C@@H]2O[C@H]2[C@@H](C)[C@H](C)O)[C@@H](O)[C@H]1O [Mupirocin]
Cholesterol-free [1, 3]: 0.7089 | Complete [1, 4]: 1.063 | Difference [1, 5]: 0.35 | Cholesterol-free media + simvastatin (0.04 μM) [2, 6]: 1.454 | Complete Media [2, 7]: 1.069 | Difference [2, 8]: −0.38

CC(C)=CCOc1ccc(/C=C/C(=O)c2ccc(OCC=C(C)C)cc2OCC(=O)O)cc1 [Sofalcone]
Difference [1, 20]: −0.07 | Cholesterol-free [1, 21]: 0.9203 | Complete [1, 22]: 0.8453 | Cholesterol-free media + simvastatin (0.04 μM) [2, 25]: 0.8486 | Complete Media [2, 26]: 0.7952 | Difference ([2]; complete media minus cholesterol-free media + simvastatin (0.04 μM), >0 enhanced anti-cancer activity, about 0 neutral, <0 antagonist): −0.05

COc1cc2ncnc(Nc3ccc(F)c(Cl)c3)c2cc1OCCCN1CCOCC1 [Gefitinib (hydrochloride)]
Cholesterol-free [1, 3]: 0.6497 | Complete [1, 4]: 0.8718 | Difference [1, 5]: 0.22 | Cholesterol-free media + simvastatin (0.04 μM) [2, 19]: 0.9234 | Complete Media [2, 23]: 0.8455 | Difference [2, 8]: −0.08

CCC1=C(C)CN(C(=O)NCCc2ccc(S(=O)(=O)NC(=O)N[C@H]3CC[C@H](C)CC3)cc2)C1=O [Glimepiride]
Cholesterol-free [1, 9]: 1.246 | Complete ([1]; NCI-H292 cells, complete media): 0.8316 | Difference [1, 10]: −0.41 | Cholesterol-free media + simvastatin (0.04 μM) [2, 11]: 0.9904 | Complete Media ([2]; drug in complete media): 0.7847 | Difference [2, 8]: −0.21

Pefloxacin (mesylate)
Cholesterol-free [1, 9]: 1.183 | Complete ([1]; NCI-H292 cells, complete media): 0.8627 | Difference [1, 10]: −0.32 | Cholesterol-free media + simvastatin (0.04 μM) [2, 11]: 1.02 | Complete Media ([2]; drug in complete media): 0.8577 | Difference [2, 8]: −0.16

Ribociclib succinate hydrate
Difference [1, 12]: −0.21 | Cholesterol-free [1, 9]: 0.9345 | Complete ([1]; NCI-H292 cells, complete media): 0.7226 | Cholesterol-free media + simvastatin (0.04 μM) [2, 13]: 0.4954 | Complete Media [2, 14]: 0.6321 | Difference [2, 15]: 0.14

Cobimetinib (hemifumarate)
Difference [1, 12]: 0.01 | Cholesterol-free [1, 3]: 0.2855 | Complete [1, 4]: 0.2917 | Cholesterol-free media + simvastatin (0.04 μM) [2, 11]: 0.5239 | Complete Media ([2]; drug in complete media): 0.3203 | Difference [2, 8]: −0.20

Bleomycin (sulfate)
Difference [1, 24]: −0.05 | Cholesterol-free [1, 3]: 0.05041 | Complete [1, 4]: −0.00442 | Cholesterol-free media + simvastatin (0.04 μM) ([2]; cholesterol-free media with simvastatin 0.04 μM, […]): 0.1778 | Complete Media ([2]; complete media, […]): 0.2205 | Difference ([2]; complete media minus cholesterol-free media + simvastatin, […]): 0.04
